In PubChem BioAssay (NCI):
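Method: 48-hour compound exposure of cells in 96-well plates, five concentrations, linear interpolation of endpoints. GI50 marks 50% less growth. Definition used: TGI = concentration required for complete inhibition of growth.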

What was measured:
Test in all cases: growth of human tumour cells (NCI), 48 h
UACC-257 melanoma = system: UACC-257 melanoma
HCT-116 colon = system: HCT-116 colon
786-0 renal = system: 786-0 renal
SK-MEL-5 melanoma = system: SK-MEL-5 melanoma
COLO 205 colon = system: COLO 205 colon
EKVX NSCLC = system: EKVX NSCLC
ACHN renal = system: ACHN renal
CAKI-1 renal = system: CAKI-1 renal
HOP-92 NSCLC = system: HOP-92 NSCLC
HL-60(TB) leukemia = system: HL-60(TB) leukemia

Row | SMILES | GI50 (UACC-257 melanoma) | TGI (UACC-257 melanoma) | GI50 (HCT-116 colon) | TGI (HCT-116 colon) | GI50 (786-0 renal) | TGI (786-0 renal) | GI50 (SK-MEL-5 melanoma) | TGI (SK-MEL-5 melanoma) | GI50 (COLO 205 colon) | TGI (COLO 205 colon) | GI50 (EKVX NSCLC) | TGI (EKVX NSCLC) | GI50 (ACHN renal) | TGI (ACHN renal) | GI50 (CAKI-1 renal) | TGI (CAKI-1 renal) | GI50 (HOP-92 NSCLC) | TGI (HOP-92 NSCLC) | GI50 (HL-60(TB) leukemia) | TGI (HL-60(TB) leukemia)
1 | CCN(CC)CCCC(C)Nc1ccnc2cc(Cl)c(SCc3ccccc3)cc12 (stereo not given) | 0.781 µM | 2.11 µM | 0.516 µM | 1.73 µM | 1.47 µM | 2.85 µM | 1.31 µM | 2.58 µM | 1.04 µM | 2.3 µM | 1.93 µM | 6.75 µM | 1.3 µM | 2.73 µM | 1.19 µM | 2.94 µM | 1.14 µM | 3.2 µM | 1.81 µM | 4.23 µM
2 | Cc1cccc2c(=O)c3c(sc12)c(NCCN)nc1ccccc13 | 0.966 µM | 1.99 µM | 0.759 µM | 1.43 µM | 0.917 µM | 1.69 µM | 0.953 µM | 1.94 µM | 0.826 µM | 1.65 µM | 0.815 µM | 1.71 µM | 0.762 µM | 1.43 µM | 0.851 µM | 2.85 µM | 0.691 µM | 2.45 µM | 0.864 µM | 1.74 µM
3 | NC(CCCNCc1ccccc1O)C(=O)O (stereo not given) | – | > 100 µM | – | > 100 µM | – | > 100 µM | – | > 100 µM | – | > 100 µM | – | > 100 µM | – | > 100 µM | – | > 100 µM | – | > 100 µM | – | > 100 µM
4 | OCCCNC(=S)Nc1ccc(-c2nc3ccccc3s2)cc1 | 27.1 µM | 51.9 µM | 19.9 µM | 46.2 µM | 22.8 µM | 55.2 µM | 20.9 µM | 47.1 µM | 30 µM | > 100 µM | 17 µM | 83.2 µM | 21.5 µM | 47.7 µM | 14.3 µM | 40.6 µM | 19.7 µM | 82.9 µM | 25.5 µM | > 100 µM
5 | Clc1ccc(CCn2cncn2)c(Cl)c1 | – | > 100 µM | – | > 100 µM | – | > 100 µM | – | > 100 µM | – | > 100 µM | – | > 100 µM | – | > 100 µM | – | > 100 µM | – | > 100 µM | – | > 100 µM
6 | O=C(Nc1cccc2ccccc12)c1cc2ccccc2cc1O | 1.6 µM | 5.03 µM | 2.85 µM | 12 µM | 3.43 µM | 17.2 µM | 1.57 µM | 3.69 µM | 9.76 µM | 23.7 µM | 1.77 µM | 6.18 µM | 2.44 µM | 7.89 µM | 1.75 µM | 4.52 µM | 0.969 µM | 4.25 µM | 2.37 µM | 8.22 µM
7 | CCOC(=O)c1c2c(n3cccc(F)c13)C(=O)c1ncccc1C2=O | 0.849 µM | 6.37 µM | 0.317 µM | 3.91 µM | 0.114 µM | 4.99 µM | 0.0994 µM | 3.22 µM | 1.27 µM | 7.2 µM | 1.07 µM | 15.8 µM | 0.0791 µM | 2.43 µM | 0.0562 µM | 21.8 µM | 2.22 µM | 9.24 µM | 1.03 µM | 3.69 µM
8 | COc1ccc2oc(-c3ccc(Cl)cc3)c(N3CCN(C)CC3)c2c1 | 1.68 µM | 3.43 µM | 1.98 µM | 4.59 µM | 1.75 µM | 3.42 µM | 1.58 µM | 3.06 µM | 1.68 µM | 3.62 µM | 0.603 µM | 2.47 µM | 1.73 µM | 3.7 µM | 1.57 µM | 3.27 µM | 0.37 µM | 2.78 µM | 2.64 µM | > 20 µM
9 | COc1ccc(OC)c(/C=C/c2cnnc3ccccc23)c1 | – | > 10 µM | – | > 10 µM | – | > 10 µM | – | > 10 µM | – | > 10 µM | – | > 10 µM | – | > 10 µM | – | > 10 µM | – | > 10 µM | – | > 10 µM
10 | COc1cc2c(/C=C3/C(=O)Nc4c3ccc3ccccc43)c(Cl)[nH]c2cc1C | 0.316 µM | > 50 µM | 0.0078 µM | – | 0.0598 µM | > 24.2 µM | 0.103 µM | 0.284 µM | 0.0715 µM | – | 0.222 µM | > 36.3 µM | 0.0261 µM | 6.92 µM | 0.00894 µM | – | – | > 31.1 µM | 0.0115 µM | 0.661 µM
11 | COc1ccc2cc(C(=O)/C=C/c3ccccc3OC)ccc2c1 | 9.78 µM | 27.9 µM | 1.4 µM | 6.5 µM | 5.59 µM | 21.5 µM | 2.75 µM | 15.9 µM | 3.56 µM | 49.4 µM | 17.5 µM | 58.5 µM | 2.97 µM | 15.6 µM | 0.862 µM | 4.88 µM | > 22.6 µM | > 50.4 µM | 2.55 µM | 8.14 µM
12 | CCNCCNc1cc(C2CCCC2)c(C#N)c2nc3ccccc3n12 | 2.58 µM | 4.74 µM | 1.95 µM | 3.89 µM | 2.69 µM | 9.79 µM | 1.75 µM | 3.31 µM | 2 µM | 4.71 µM | 4.73 µM | 21.5 µM | 1.91 µM | 4 µM | 3.59 µM | 14.5 µM | 2.08 µM | 4.4 µM | 2.01 µM | 4.3 µM
13 | CSc1ccc2c(c1)C(=O)c1c-2n(CCCN=[N+]=[N-])c(=O)c2cc([N+](=O)[O-])ccc12 | 39.9 µM | > 100 µM | 1.69 µM | > 100 µM | 1.65 µM | 14.6 µM | 2.56 µM | 16.4 µM | > 23.7 µM | > 100 µM | > 100 µM | > 100 µM | 0.528 µM | > 100 µM | 2.33 µM | > 66.5 µM | 5.24 µM | > 100 µM | 1.17 µM | –
14 | COC1(C)Cc2c(c(C)c(O)c3c2C(=O)C=C(Cl)C3=O)O1 (stereo not given) | – | > 69.5 µM | – | > 78 µM | – | > 100 µM | – | > 100 µM | – | 38.1 µM | – | > 100 µM | – | 56.5 µM | – | 42 µM | – | 36.4 µM | – | 14.8 µM
15 | N=c1c2c(=O)n3c(nc2nc2sc4ccc(Cl)cc4n12)-c1ccccc1Sc1ccccc1-3 | 3.14 µM | 9.39 µM | 2.34 µM | 10.3 µM | 2.55 µM | 6.84 µM | 1.42 µM | 3.86 µM | 2.24 µM | 5.24 µM | 1.42 µM | 8.97 µM | 2.61 µM | 16.9 µM | 2.36 µM | 12.9 µM | 0.762 µM | 6.08 µM | 2.21 µM | 6.63 µM
16 | CC1=NN(c2ccccc2)C(=O)C1C(=O)C(=O)Nc1ccc(C)cc1C (stereo not given) | – | > 100 µM | – | > 100 µM | – | > 100 µM | – | > 100 µM | – | > 100 µM | – | > 100 µM | – | > 100 µM | – | > 100 µM | – | > 100 µM | – | > 100 µM
17 | COc1cc2c3c(n(CCCN4CCOCC4)c(=O)c2cc1OC)-c1cc2c(cc1C3=O)OCO2 | > 51.5 µM | > 100 µM | 1.8 µM | 17.4 µM | 0.689 µM | 20.3 µM | 1.34 µM | 12.2 µM | 40.4 µM | > 100 µM | 50.9 µM | > 100 µM | 0.5 µM | > 100 µM | 0.52 µM | 14.6 µM | 3.21 µM | > 91.5 µM | 3.57 µM | > 47 µM
18 | Cc1ccc(S(=O)(=O)C2=C3C(=C(c4ccccc4)c4ccccc43)CN(S(=O)(=O)c3ccc(C)cc3)C2)cc1 | 15.8 µM | 37.4 µM | 2 µM | 7.78 µM | 1.67 µM | 3.22 µM | 5.04 µM | 18.3 µM | 14.9 µM | > 100 µM | 6.01 µM | > 100 µM | 4.52 µM | 19.3 µM | 11.5 µM | > 100 µM | 1.86 µM | 13.8 µM | 11.2 µM | > 100 µM
